# In patent US20260234115A1, “LIPID COMPOUNDS, COMPOSITIONS, AND USES THEREOF” (Liberate Bio, Inc., priority 2023, published 2026):
# Marks after values point to notes of the source that are not given here.
# What was measured:
# [1] = Plate-based fluorescence (RiboGreen) assay: nucleic acid cargo content and encapsulation efficiency of LNPs; type: physicochemical; conditions: for EE (%) N/P:6 / EE (%) N/P:3: LNP
# Method in brief: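 LNPs made by microfluidic mixing of ethanolic lipids with mRNA in pH 4.0 citrate, dialyzed into PBS pH 7.4. Cargo quantified by RiboGreen fluorescence against a standard curve: Triton-lysed samples give total, TE-only samples give free cargo; encapsulation efficiency from their ratio.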
# [2] = Dynamic light scattering: LNP particle size and PDI; type: physicochemical; conditions: for PDI N/P:6 / Size (nm) N/P:6 / PDI N/P:3 / Size (nm) N/P:3: LNP
# Method in brief: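 The LNPs were made by microfluidic mixing of the lipids in ethanol with mRNA in pH 4.0 citrate, then dialyzed into PBS pH 7.4. They were diluted in PBS pH 7.4, and particle size and PDI were measured by dynamic light scattering.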
# mouse organs = assay: In vivo activity screening in mice: organ mean total flux (p/s) of luciferase activity after injection of F2 LNP pools (Table 6, FIG. 7A-7C); conditions: luciferase mRNA
# Method in brief: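 Luciferase output per organ is reported as mean total flux (p/s) from IVIS regions of interest. Organs were collected from perfused C57BL/6J mice and imaged 10-15 min after s.c. D-luciferin, 4-6 h after i.v. dosing. Dosing was 0.25-3 mg/kg luciferase mRNA in F2 LNP pools.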
# [3] = LNP compositions for Formulation F2 Study
# [4] = LNP compositions for in vivo mouse study, four formulations (F1-F4) pooled, or pools of four compounds
# [5] = LNP compositions for in vivo mouse study, four formulations (F1-F4) of the lipid compound pooled, or pools of four compounds (sixteen compositions)
compound,measurement,setting,value
"CCCCC/C=C\CCOC(=O)CCCCCC(=O)OCC(COC(=O)CCCCCC(=O)OCC/C=C\CCCCC)(COC(=O)CCC(CCCCCC)OC(=O)NCCN1CCCC1)COC(=O)CC12CC3CC(CC(C3)C1)C2 (stereo not shown) [Compound 8, O7-[2-[[2-(1-adamantyl)acetyl]oxymethyl]-2-[[7-[(Z)-non-3-enoxy]-7-oxo-heptanoyl]oxymethyl]-3-[4-(2-pyrrolidin-1-ylethylcarbamoyloxy)decanoyloxy]propyl]O1-[(Z)-non-3-enyl]heptanedioate]",EE %,[1]; [3],98%
same,EE %,[1]; [4],97%
same,mRNA Content,[1]; [4],108 µg/mL
same,EE (%) N/P:6,"[1]; Formulation F1, N/P 6",100%
same,EE (%) N/P:6,"[1]; Formulation F2, N/P 6",99%
same,EE (%) N/P:6,"[1]; Formulation F3, N/P 6",95%
same,EE (%) N/P:6,"[1]; Formulation F4, N/P 6",99%
same,PDI,[2]; [3],0.071
same,Particle Size (nm),[2]; [3],119 nm
same,Particle Size (nm),[2]; [5],101 nm
same,PDI,[2]; [4],0.07
same,PDI N/P:6,"[2]; Formulation F1, N/P 6",0.08
same,Size (nm) N/P:6,"[2]; Formulation F1, N/P 6",87 ± 6 nm
same,PDI N/P:6,"[2]; Formulation F2, N/P 6",0.06
same,Size (nm) N/P:6,"[2]; Formulation F2, N/P 6",117 ± 4 nm
same,PDI N/P:6,"[2]; Formulation F3, N/P 6",0.12
same,Size (nm) N/P:6,"[2]; Formulation F3, N/P 6",100 ± 2 nm
same,PDI N/P:6,"[2]; Formulation F4, N/P 6",0.19
same,Size (nm) N/P:6,"[2]; Formulation F4, N/P 6",79 ± 1 nm
same,Organ Mean Total Flux Femur,"mouse organs; Mouse 1, dose 0.3 mg/kg",11.1 p/s (×10^6)
same,Organ Mean Total Flux Heart,"mouse organs; Mouse 1, dose 0.3 mg/kg",2.8 p/s (×10^6)
same,Organ Mean Total Flux Kidney,"mouse organs; Mouse 1, dose 0.3 mg/kg",0.8 p/s (×10^6)
same,Organ Mean Total Flux Liver,"mouse organs; Mouse 1, dose 0.3 mg/kg",72.4 p/s (×10^6)
same,Organ Mean Total Flux Lung,"mouse organs; Mouse 1, dose 0.3 mg/kg",20.1 p/s (×10^6)
same,Organ Mean Total Flux Muscle,"mouse organs; Mouse 1, dose 0.3 mg/kg",22.7 p/s (×10^6)
same,Organ Mean Total Flux Pancreas,"mouse organs; Mouse 1, dose 0.3 mg/kg",4.4 p/s (×10^6)
same,Organ Mean Total Flux Spleen,"mouse organs; Mouse 1, dose 0.3 mg/kg",10.7 p/s (×10^6)
same,Organ Mean Total Flux Femur,"mouse organs; Mouse 14, dose 0.5 mg/kg",9.8 p/s (×10^6)
same,Organ Mean Total Flux Heart,"mouse organs; Mouse 14, dose 0.5 mg/kg",2.2 p/s (×10^6)
same,Organ Mean Total Flux Kidney,"mouse organs; Mouse 14, dose 0.5 mg/kg",3.6 p/s (×10^6)
same,Organ Mean Total Flux Liver,"mouse organs; Mouse 14, dose 0.5 mg/kg",257.0 p/s (×10^6)
same,Organ Mean Total Flux Lung,"mouse organs; Mouse 14, dose 0.5 mg/kg",6.4 p/s (×10^6)
same,Organ Mean Total Flux Muscle,"mouse organs; Mouse 14, dose 0.5 mg/kg",46.9 p/s (×10^6)
same,Organ Mean Total Flux Pancreas,"mouse organs; Mouse 14, dose 0.5 mg/kg",4.0 p/s (×10^6)
same,Organ Mean Total Flux Spleen,"mouse organs; Mouse 14, dose 0.5 mg/kg",10.4 p/s (×10^6)
"CCCCCCCC/C=C\CCCCCCCC(=O)OCC(COC(=O)CCCCCCC/C=C\CCCCCCCC)(COC(=O)CCC(CCCCCC)OC(=O)NCCN1CCCC1)COC(=O)CCC(OCCCCCCCC)OCCCCCCCC (stereo not shown) [Compound 4, [2-(4,4-dioctoxybutanoyloxymethyl)-2-[[(Z)-octadec-9-enoyl]oxymethyl]-3-[4-(2-pyrrolidin-1-ylethylcarbamoyloxy)decanoyloxy]propyl](Z)-octadec-9-enoate]",EE %,[1]; [4],99%
same,mRNA Content,[1]; [4],99.1 µg/mL
same,EE (%) N/P:3,"[1]; Formulation F1, N/P 3",98%
same,EE (%) N/P:6,"[1]; Formulation F1, N/P 6",100%
same,EE (%) N/P:3,"[1]; Formulation F2, N/P 3",98%
same,EE (%) N/P:6,"[1]; Formulation F2, N/P 6",100%
same,EE (%) N/P:3,"[1]; Formulation F3, N/P 3",94%
same,EE (%) N/P:6,"[1]; Formulation F3, N/P 6",100%
same,EE (%) N/P:3,"[1]; Formulation F4, N/P 3",98%
same,EE (%) N/P:6,"[1]; Formulation F4, N/P 6",100%
same,Particle Size (nm),[2]; [5],93.4 nm
same,PDI,[2]; [4],0.022
same,PDI N/P:3,"[2]; Formulation F1, N/P 3",0.092
same,Size (nm) N/P:3,"[2]; Formulation F1, N/P 3",86 ± 10 nm
same,PDI N/P:6,"[2]; Formulation F1, N/P 6",0.063
same,Size (nm) N/P:6,"[2]; Formulation F1, N/P 6",78 ± 2 nm
same,PDI N/P:3,"[2]; Formulation F2, N/P 3",0.041
same,Size (nm) N/P:3,"[2]; Formulation F2, N/P 3",97 ± 1 nm
same,PDI N/P:6,"[2]; Formulation F2, N/P 6",0.069
same,Size (nm) N/P:6,"[2]; Formulation F2, N/P 6",93 ± 1 nm
same,PDI N/P:3,"[2]; Formulation F3, N/P 3",0.089
same,Size (nm) N/P:3,"[2]; Formulation F3, N/P 3",116 ± 6 nm
same,PDI N/P:6,"[2]; Formulation F3, N/P 6",0.08
same,Size (nm) N/P:6,"[2]; Formulation F3, N/P 6",108 ± 2 nm
same,PDI N/P:3,"[2]; Formulation F4, N/P 3",0.068
same,Size (nm) N/P:3,"[2]; Formulation F4, N/P 3",73 ± 0 nm
same,PDI N/P:6,"[2]; Formulation F4, N/P 6",0.12
same,Size (nm) N/P:6,"[2]; Formulation F4, N/P 6",73 ± 2 nm
same,Organ Mean Total Flux Femur,"mouse organs; Mouse 1, dose 0.3 mg/kg",15.6 p/s (×10^6)
same,Organ Mean Total Flux Heart,"mouse organs; Mouse 1, dose 0.3 mg/kg",4.4 p/s (×10^6)
same,Organ Mean Total Flux Kidney,"mouse organs; Mouse 1, dose 0.3 mg/kg",0.8 p/s (×10^6)
same,Organ Mean Total Flux Liver,"mouse organs; Mouse 1, dose 0.3 mg/kg",105.0 p/s (×10^6)
same,Organ Mean Total Flux Lung,"mouse organs; Mouse 1, dose 0.3 mg/kg",39.9 p/s (×10^6)
same,Organ Mean Total Flux Muscle,"mouse organs; Mouse 1, dose 0.3 mg/kg",18.4 p/s (×10^6)
same,Organ Mean Total Flux Pancreas,"mouse organs; Mouse 1, dose 0.3 mg/kg",5.0 p/s (×10^6)
same,Organ Mean Total Flux Spleen,"mouse organs; Mouse 1, dose 0.3 mg/kg",17.6 p/s (×10^6)
"CCCCC/C=C\CCOC(=O)CCCCCCC(=O)OCC(COC(=O)CCCCCCC(=O)OCC/C=C\CCCCC)(COC(=O)CCCCCCC(=O)OCC/C=C\CCCCC)COC(=O)CCC(CCCCCC)OC(=O)NCCN1CCCC1 (stereo not shown) [Compound 10, O8-[2,2-bis[[8-[(Z)-non-3-enoxy]-8-oxo-octanoyl]oxymethyl]-3-[4-(2-pyrrolidin-1-ylethylcarbamoyloxy)decanoyloxy]propyl]O1-[(Z)-non-3-enyl]octanedioate]",EE %,[1]; [3],98%
same,EE %,[1]; [4],99%
same,mRNA Content,[1]; [4],101.7 µg/mL
same,EE (%) N/P:3,"[1]; Formulation F1, N/P 3",98%
same,EE (%) N/P:6,"[1]; Formulation F1, N/P 6",100%
same,EE (%) N/P:3,"[1]; Formulation F2, N/P 3",98%
same,EE (%) N/P:6,"[1]; Formulation F2, N/P 6",100%
same,EE (%) N/P:3,"[1]; Formulation F3, N/P 3",96%
same,EE (%) N/P:6,"[1]; Formulation F3, N/P 6",100%
same,EE (%) N/P:3,"[1]; Formulation F4, N/P 3",98%
same,EE (%) N/P:6,"[1]; Formulation F4, N/P 6",100%
same,PDI,[2]; [3],0.139
same,Particle Size (nm),[2]; [3],125.5 nm
same,Particle Size (nm),[2]; [5],91.7 nm
same,PDI,[2]; [4],0.176
same,PDI N/P:3,"[2]; Formulation F1, N/P 3",0.208
same,Size (nm) N/P:3,"[2]; Formulation F1, N/P 3",86 ± 4 nm
same,PDI N/P:6,"[2]; Formulation F1, N/P 6",0.09
same,Size (nm) N/P:6,"[2]; Formulation F1, N/P 6",78 ± 3 nm
same,PDI N/P:3,"[2]; Formulation F2, N/P 3",0.097
same,Size (nm) N/P:3,"[2]; Formulation F2, N/P 3",102 ± 3 nm
same,PDI N/P:6,"[2]; Formulation F2, N/P 6",0.122
same,Size (nm) N/P:6,"[2]; Formulation F2, N/P 6",96 ± 0 nm
same,PDI N/P:3,"[2]; Formulation F3, N/P 3",0.081
same,Size (nm) N/P:3,"[2]; Formulation F3, N/P 3",106 ± 2 nm
same,PDI N/P:6,"[2]; Formulation F3, N/P 6",0.092
same,Size (nm) N/P:6,"[2]; Formulation F3, N/P 6",100 ± 3 nm
same,PDI N/P:3,"[2]; Formulation F4, N/P 3",0.278
same,Size (nm) N/P:3,"[2]; Formulation F4, N/P 3",92 ± 4 nm
same,PDI N/P:6,"[2]; Formulation F4, N/P 6",0.227
same,Size (nm) N/P:6,"[2]; Formulation F4, N/P 6",78 ± 1 nm
same,Organ Mean Total Flux Femur,"mouse organs; Mouse 1, dose 0.3 mg/kg",7.1 p/s (×10^6)
same,Organ Mean Total Flux Heart,"mouse organs; Mouse 1, dose 0.3 mg/kg",4.3 p/s (×10^6)
same,Organ Mean Total Flux Kidney,"mouse organs; Mouse 1, dose 0.3 mg/kg",81.1 p/s (×10^6)
same,Organ Mean Total Flux Liver,"mouse organs; Mouse 1, dose 0.3 mg/kg",12560 p/s (×10^6)
same,Organ Mean Total Flux Lung,"mouse organs; Mouse 1, dose 0.3 mg/kg",41.5 p/s (×10^6)
same,Organ Mean Total Flux Muscle,"mouse organs; Mouse 1, dose 0.3 mg/kg",6.2 p/s (×10^6)
same,Organ Mean Total Flux Pancreas,"mouse organs; Mouse 1, dose 0.3 mg/kg",2.7 p/s (×10^6)
same,Organ Mean Total Flux Spleen,"mouse organs; Mouse 1, dose 0.3 mg/kg",12.3 p/s (×10^6)
same,Organ Mean Total Flux Femur,"mouse organs; Mouse 14, dose 0.5 mg/kg",6.5 p/s (×10^6)
same,Organ Mean Total Flux Heart,"mouse organs; Mouse 14, dose 0.5 mg/kg",2.8 p/s (×10^6)
same,Organ Mean Total Flux Kidney,"mouse organs; Mouse 14, dose 0.5 mg/kg",3.7 p/s (×10^6)
same,Organ Mean Total Flux Liver,"mouse organs; Mouse 14, dose 0.5 mg/kg",1175 p/s (×10^6)
same,Organ Mean Total Flux Lung,"mouse organs; Mouse 14, dose 0.5 mg/kg",16.2 p/s (×10^6)
same,Organ Mean Total Flux Muscle,"mouse organs; Mouse 14, dose 0.5 mg/kg",15.1 p/s (×10^6)
same,Organ Mean Total Flux Pancreas,"mouse organs; Mouse 14, dose 0.5 mg/kg",4.0 p/s (×10^6)
same,Organ Mean Total Flux Spleen,"mouse organs; Mouse 14, dose 0.5 mg/kg",10.2 p/s (×10^6)
